Laboratory results: patent publication US20110046090A1 (BrainCells Inc., priority 2005, published 2011)
pEC50, pIC50: −log10 of the molar value. Where “and” joins values, the source holds several entries; their conditions need not be identical. Equal values may be shown once. Entries after “also recorded” stand apart in the source; their conditions may differ. Read-outs that look alike come from different tables or passages of the source.

What was measured:
mGluR2 = mGluR2 (Homo sapiens, UniProt Q14416); details: cited from earlier work
Sequence of mGluR2 (Q14416 19-872): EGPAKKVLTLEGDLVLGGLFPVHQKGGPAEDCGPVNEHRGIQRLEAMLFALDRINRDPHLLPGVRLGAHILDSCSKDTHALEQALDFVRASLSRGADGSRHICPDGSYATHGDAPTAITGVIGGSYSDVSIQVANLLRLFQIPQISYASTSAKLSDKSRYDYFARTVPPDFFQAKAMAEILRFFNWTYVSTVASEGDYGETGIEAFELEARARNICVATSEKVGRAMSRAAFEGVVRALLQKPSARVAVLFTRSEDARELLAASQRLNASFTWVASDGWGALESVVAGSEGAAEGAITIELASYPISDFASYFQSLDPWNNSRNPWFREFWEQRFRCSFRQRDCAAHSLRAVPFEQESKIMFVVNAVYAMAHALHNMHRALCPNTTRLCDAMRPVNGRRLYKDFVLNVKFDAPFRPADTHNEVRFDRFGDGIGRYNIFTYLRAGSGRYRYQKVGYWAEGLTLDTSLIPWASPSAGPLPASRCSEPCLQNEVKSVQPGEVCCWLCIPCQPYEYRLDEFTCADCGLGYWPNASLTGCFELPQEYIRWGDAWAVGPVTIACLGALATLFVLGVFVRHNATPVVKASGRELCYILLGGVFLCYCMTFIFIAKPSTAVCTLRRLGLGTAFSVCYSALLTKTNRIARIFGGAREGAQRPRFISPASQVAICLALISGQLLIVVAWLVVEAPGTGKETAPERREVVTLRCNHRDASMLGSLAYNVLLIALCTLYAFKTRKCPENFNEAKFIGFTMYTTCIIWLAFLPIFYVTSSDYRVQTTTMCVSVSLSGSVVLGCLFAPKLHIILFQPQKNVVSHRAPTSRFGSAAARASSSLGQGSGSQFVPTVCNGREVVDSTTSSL

mGluR3 = mGluR3 (Homo sapiens, UniProt Q14832); details: cited from earlier work
Sequence of mGluR3 (Q14832 23-879): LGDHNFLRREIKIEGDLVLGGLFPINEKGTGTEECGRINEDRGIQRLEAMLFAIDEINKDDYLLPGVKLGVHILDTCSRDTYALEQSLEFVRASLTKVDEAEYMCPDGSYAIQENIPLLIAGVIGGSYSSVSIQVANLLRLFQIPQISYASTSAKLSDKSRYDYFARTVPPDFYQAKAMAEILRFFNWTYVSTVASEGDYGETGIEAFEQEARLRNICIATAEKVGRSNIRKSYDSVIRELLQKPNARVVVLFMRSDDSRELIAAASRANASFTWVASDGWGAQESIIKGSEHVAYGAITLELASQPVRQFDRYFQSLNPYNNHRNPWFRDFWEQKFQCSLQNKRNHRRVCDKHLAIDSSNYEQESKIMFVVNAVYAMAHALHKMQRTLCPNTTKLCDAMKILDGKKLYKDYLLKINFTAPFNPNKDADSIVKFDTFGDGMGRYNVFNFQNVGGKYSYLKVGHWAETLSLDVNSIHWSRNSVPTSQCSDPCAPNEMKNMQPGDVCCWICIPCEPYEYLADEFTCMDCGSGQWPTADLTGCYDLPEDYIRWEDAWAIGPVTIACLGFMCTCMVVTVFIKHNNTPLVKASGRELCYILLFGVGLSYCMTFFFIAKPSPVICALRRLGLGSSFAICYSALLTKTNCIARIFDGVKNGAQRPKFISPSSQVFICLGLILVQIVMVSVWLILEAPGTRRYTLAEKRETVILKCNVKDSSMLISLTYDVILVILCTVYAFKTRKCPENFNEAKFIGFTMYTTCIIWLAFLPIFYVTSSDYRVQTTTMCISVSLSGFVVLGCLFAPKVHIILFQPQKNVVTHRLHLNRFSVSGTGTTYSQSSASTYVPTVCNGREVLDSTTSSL

Male Fischer F344 rats = test: novelty suppressed feeding antidepressant/anxiolytic assay; type: in vivo, rat; details: oral gavage once daily for 21 days, compounds given two hours prior to testing, 5.0 mg/kg each
Protocol: Male Fischer F344 rats were administered test compound(s)+vehicle or vehicle only (negative control) by oral gavage once daily for 21 days and evaluated for antidepressant/anxiolytic activity in the novelty suppressed feeding assay as follows. Twenty-four hours prior to behavioral testing, all food was removed from the home cage. At the time of testing a single pellet was placed in the center of a novel arena. Animals were placed in the corner of the arena and latency to eat the pellet was recorded. Compounds were administered two hours prior to testing. A decreased latency to eat the food pellet is indicative of both neurogenesis and antidepressant activity.

[1] = tested on: human neural stem cells (hNSCs); test: neuronal differentiation of cultured human neural stem cells (TUJ-1 staining), agents alone and in combination; details: for pEC50: % of neuronal positive control, basal media subtracted; for effect on differentiation of hNSCs along a neuronal lineage, agent alone: dose-response, normalized to neuronal positive control;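 as to all read-outs here: cells kept in mitogen-free test media, with growth-factor-free basal medium as the negative control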
Protocol: The presence of synergy was determined by use of a combination index (CI). […] The CI is a quantitative measure of the nature of drug interactions, comparing the EC50's of two compounds, when each is assayed alone, to the EC50 of each compound when assayed in combination. The combination index (CI) is equal to the following formula:
where C1 and C2 are the concentrations of a first and a second compound, respectively, resulting in 50% activity in neuronal differentiation when assayed in combination; and IC1 and IC2 are the concentrations of each compound resulting in 50% activity when assayed independently.

[2] = tested on: human neural stem cells (hNSCs); test: astrocyte differentiation of cultured human neural stem cells (GFAP staining); type: cell-based; details: dose-response, normalized to astrocyte positive control
Protocol: Mitogen-free test media with a positive control for neuronal differentiation, mitogen-free test media with 50 ng/ml BMP-2, 50 ng/ml LIF and 0.5% FBS served as a positive control for astrocyte differentiation, and basal media without growth factors served as a negative control.

[3] = tested on: human neural stem cells (hNSCs); test: toxicity on human neural stem cells (cell count, nuclear dye Hoechst 33342); type: cell-based; details: concentrations up to 100 μM; toxic doses fall below 80% of basal cell count
Protocol: Data is shown as a percent of the basal media cell count. Toxic doses typically fall below 80% of the basal cell count.
Experiments were carried out as described in Example 1, except that the positive control contained basal media only, and cells were stained with nuclear dye (Hoechst 33342).

[4] = tested on: human neural stem cells (hNSCs); test: growth of individual neurospheres comprising hNSCs (proliferation); type: cell-based; details: 1 μM, 10 μM and 30 μM; percent increase over basal neurosphere size as a function of time
Protocol: Results are shown as a percent increase over the basal neurosphere size. Negative control (open circles) is basal media without compound, and positive control (open squares) is basal media with a known proliferative agent.
FIG. 7 is a time-response curve showing the effect of 1 μM (solid diamonds), 10 μM (solid squares), and 30 μM (solid circles) concentrations of baclofen on the growth of individual neurospheres comprising human neural stem cells (hNSCs) as a function of time. Results are shown as a percent increase over the basal neurosphere size. Negative control (open circle) is basal media without compound, and positive control (open square) is basal media with a known proliferative agent.

Male Fisher F344 rats = test: chronic dosing of rats: proliferation and differentiation of neural cells in the dentate gyrus (BrdU); type: in vivo, rat; details: for increase in differentiation of neural progenitor cells into mature neurons, subgranular zone of dentate gyrus: chronic treatment
Protocol: Male Fisher F344 rats were injected with varying doses of baclofen as a test compound with vehicle, or vehicle only (negative control), once daily for twenty eight days. Rats were injected once daily with 100 mg/kg BrdU on days 9-14 of test compound administrations. Rats were then anesthetized and killed by transcardial perfusion of 4% paraformaldehyde at day 28. Brains were rapidly removed and stored in 4% paraformaldehyde for 24 hours and then equilibrated in phosphate buffered 30% sucrose. Free floating 40 micron sections were collected on a freezing microtome and stored in cryoprotectant. Antibodies against BrdU and cell types of interest (e.g., neurons, astrocytes, oligodendrocytes, endothelial cells) were used for detection of cell differentiation.
Briefly, tissues were washed (0.01 M PBS), endogenous peroxidase blocked with 1% hydrogen peroxide, and incubated in PBS (0.01 M, pH 7.4, 10% normal goat serum, 0.5% Triton X-100) for 2 hours at room temperature. Tissues were then incubated with primary antibody at 4° C. overnight. The tissues were rinsed in PBS followed by incubation with biotinylated secondary antibody (1 hour at room temperature). Tissues were further washed with PBS and incubated in avidin-biotin complex kit solution at room temperature for 1 hour. Various fluorophores linked to streptavidin were used for visualization. Tissues were washed with PBS, briefly rinsed in dH2O, serially dehydrated and coverslipped. Cell counting and unbiased stereology was limited to the hippocampal granule cell layer proper and one 50 um border along the hilar margin that includes the neurogenic subgranular zone. The proportion of BrdU cells displaying a lineage-specific phenotype was determined by scoring the co-localization of cell phenotype markers with BrdU using confocal microscopy. Split panel and z-axis analysis were used for all counting. All counts were performed using multi-channel configuration with a 40× objective and electronic zoom of 2. When possible, 100 or more BrdU-positive cells were scored for each marker per animal. Each cell was manually examined in first full “z”-dimension and only those cells for which the nucleus is unambiguously associated with the lineage-specific marker were scored as positive.
The total number of BrdU-labeled cells per hippocampal granule cell layer and subgranule zone were determined using diaminobenzidine stained tissues. Over-estimation was corrected using the Abercrombie method for nuclei with empirically determined average diameter of 13 um within a 40 um section.

human mGlu2 receptors = human mGlu2 receptors (Homo sapiens, UniProt Q14416); details: in vitro; e.g., below about 10 nM, or below about 5 nM; cited from earlier work
Sequence of human mGlu2 receptors (Q14416 19-872): as the sequence (Q14416 19-872) above

human mGlu3 receptors = human mGlu3 receptors (Homo sapiens, UniProt Q14832); details: in vitro; e.g., below about 10 nM, or below about 5 nM; cited from earlier work
Sequence of human mGlu3 receptors (Q14832 23-879): as the sequence (Q14832 23-879) above

[5] = in vivo; cited from earlier work
[6] = cited from earlier work
[7] = read-out: EC50 for neuronal differentiation, agent alone, compound run individually
[8] = Homo sapiens, Neural stem cell, read-out: EC50 for neuronal differentiation, agent alone, compound run individually

NC1(C(=O)O)CCc2cc(P(=O)(O)O)ccc21 (racemic) [APICA, (RS)-1-amino-5-phosphonoindan-1-carboxylic acid]
pIC50 (mGluR2): ~4.52 | pIC50 (mGluR3): ~4.52

CC(C)C[C@H](CN)CC(=O)O [pregabalin, (S)-(+)-3-isobutylgaba]
antidepressant and anxiolytic effects in novelty suppressed feeding (Male Fischer F344 rats): no effects | pEC50 [1, 7]: 6.24 and 5.47 and 5.38

C[C@H](CS)C(=O)N1CCC[C@H]1C(=O)O [captopril]
pEC50 [1, 8]: 5.42

CC(C)c1c(C(=O)Nc2ccccc2)c(-c2ccccc2)c(-c2ccc(F)cc2)n1CC[C@@H](O)C[C@@H](O)CC(=O)O [atorvastatin]
pEC50 [1, 8]: 8.52

NCC(CC(=O)O)c1ccc(Cl)cc1 (stereo not drawn) [baclofen, Baclofen]
effect on differentiation of hNSCs along an astrocyte lineage [2]: did not exhibit a significant effect on astrocyte differentiation | effect on differentiation of hNSCs along an astrocyte lineage ([2]; listed as Baclofen): no detectable effect | toxicity on hNSCs (cell count as percent of basal media cell count) [3]: Neither GABA nor baclofen exhibited toxicity; also recorded: did not exhibit significant toxicity | effect on neurosphere growth / cell proliferation [4]: positive effect on cell proliferation | increase in differentiation of neural progenitor cells into mature neurons, subgranular zone of dentate gyrus (Male Fisher F344 rats; 0.75 mg/kg/day): 8% | increase in differentiation of neural progenitor cells into mature neurons, subgranular zone of dentate gyrus (Male Fisher F344 rats; 1.50 mg/kg/day): 5% | neural cell proliferation within the dentate gyrus (mean number of BrdU-positive cells) (Male Fisher F344 rats; injection once daily for twenty eight days, 0.75 and 1.50 mg/kg): dose-related increase in proliferation | neurogenic effects in vivo (Male Fisher F344 rats; once daily for twenty eight days): produces neurogenic effects with a rapid onset of action | pEC50 [1, 8]: 5.42 | effect on differentiation of hNSCs along a neuronal lineage, agent alone [1]: significant enhancement | effect on differentiation of hNSCs along a neuronal lineage, agent alone ([1]; listed as Baclofen): promoted neuronal differentiation | pEC50 [1, 7]: 5.49

CCOc1nc2cccc(C(=O)O)c2n1Cc1ccc(-c2ccccc2-c2nnn[nH]2)cc1 [candesartan]
antidepressant and anxiolytic effects in novelty suppressed feeding (Male Fischer F344 rats): no effects | pEC50 [1, 8]: 5.93 | pEC50 [1, 7]: 5.88

NCC1(CC(=O)O)CCCCC1 [gabapentin, Gabapentin]
pEC50 [1, 7]: 6.17 and 5.36 and 5.58

CCCCN(CC)c1nc(C)nc2c1c(C)c(C)n2-c1c(C)cc(C)cc1C [antalarmin]
pEC50 [1, 8]: 5.63

CCCCc1nc(Cl)c(CO)n1Cc1ccc(-c2ccccc2-c2nn[nH]n2)cc1 [losartan]
pEC50 [1, 8]: 6.51

COC(=O)[C@@H]1[C@H]2C[C@H]3c4[nH]c5ccccc5c4CCN3C[C@@H]2CC[C@@H]1O [yohimbine]
pEC50 [1, 8]: 5.71

O=C1CC[C@@]2(O)[C@H]3Cc4ccc(O)c5c4[C@@]2(CCN3CC2CC2)[C@H]1O5 [naltrexone]
pEC50 [1, 8]: 5.14

N[C@@]1(C(=O)O)CO[C@H]2[C@H](C(=O)O)[C@H]21 [LY379268, (−)-2-Oxa-4-aminobicyclohexane-4,6-dicarboxylic acid]
EC50 (human mGlu2 receptors): low nanomolar range | EC50 (human mGlu3 receptors): low nanomolar range

NC(=O)C[S+]([O-])C(c1ccccc1)c1ccccc1 (stereo not drawn) [modafinil]
pEC50 [1, 8]: 5.46

NCCCC(=O)O [GABA]
effect on differentiation of hNSCs along an astrocyte lineage [2]: no detectable effect; also recorded: did not exhibit a significant effect on astrocyte differentiation | toxicity on hNSCs (cell count as percent of basal media cell count) [3]: Neither GABA nor baclofen exhibited toxicity; also recorded: did not exhibit significant toxicity | effect on neurosphere growth / cell proliferation [4]: positive effect on cell proliferation | effect on differentiation of hNSCs along a neuronal lineage, agent alone [1]: promoted neuronal differentiation; also recorded: significant enhancement

CCCCc1ncc(/C=C(\Cc2cccs2)C(=O)O)n1Cc1ccc(C(=O)O)cc1 [eprosartan]
pEC50 [1, 8]: 7.52

O=C(O)[C@@H]1C[C@@H](C2CCCCC2)CN1C(=O)CP(=O)(O)CCCCc1ccccc1 [fosinoprilat]
pEC50 [1, 8]: 5.48

CCCc1nc2c(C)cc(-c3nc4ccccc4n3C)cc2n1Cc1ccc(-c2ccccc2C(=O)O)cc1 [telmisartan]
pEC50 [1, 8]: 7.70

COCCCOc1cc(C[C@@H](C[C@H](N)[C@@H](O)C[C@H](C(=O)NCC(C)(C)C(N)=O)C(C)C)C(C)C)ccc1OC [aliskiren, (2S,4S,5S,7S)-5-amino-N-(2-carbamoyl-2-methyl-propyl)-4-hydroxy-7-{[4-methoxy-3-(3-methoxypropoxy)phenyl]methyl}-8-methyl-2-propan-2-yl-nonanamide]
plasma half-life [5]: ≈ 24 hours | water solubility [6]: good water solubility | pEC50 [1, 8]: 5.55

Clc1ccc2c(c1)N=C(N1CCNCC1)c1ccccc1N2 [N-desmethylclozapine]
pEC50 [1, 7]: < 4.00

CCOC(=O)[C@H](CCc1ccccc1)N[C@H]1CCc2ccccc2N(CC(=O)O)C1=O [benazepril]
pEC50 [1, 8]: 5.26

CCC[C@H](N[C@@H](C)C(=O)N1[C@H](C(=O)O)C[C@@H]2CCCC[C@@H]21)C(=O)O [perindoprilat, Perindoprilat]
pEC50 [1, 8]: 5.46

NCCCC[C@H](N[C@@H](CCc1ccccc1)C(=O)O)C(=O)N1CCC[C@H]1C(=O)O [lisinopril]
pEC50 [1, 8]: 5.42

NC(=O)c1ncn([C@@H]2O[C@H](CO)[C@@H](O)[C@H]2O)n1 [ribaviran, ribavirin]
pEC50 [1, 8]: 5.21

C[C@H](N[C@@H](CCc1ccccc1)C(=O)O)C(=O)N1Cc2ccccc2C[C@H]1C(=O)O [quinaprilat, Quinaprilat]
pEC50 [1, 8]: 5.62
